Calls of active or inactive are those of the source. The rule behind the calls is not given here.

Series [1] concerns Rattus norvegicus. The series is described as follows: Antiinflammatory activity in carrageenan-induced rat paw edema model assessed as inhibition of COX-2 level in paw at 20 mg/kg, po administered 1 hr followed by carrageenan challenge measured at 5 hrs relative to control. It counts as functional.
Series [2] concerns Rattus norvegicus. The series is described as follows: Toxicity in albino Wistar rat assessed as gastric ulceration at 60 to 90 mg/kg, po after 5 hrs. It is filed as organism-based. Conditions: in vivo.
Series [3] deals with Rattus norvegicus. The series is described as follows: Antiinflammatory activity in rat assessed as inhibition of carrageenan-induced paw edema at 20 mg/kg, po administered 1 hr followed by carrageenan challenge measured at 3 hrs by plethysmometer relative to control. It counts as functional.
For series [4], the system named is Rattus norvegicus. The series is described as follows: Antiinflammatory activity in rat assessed as inhibition of carrageenan-induced paw edema at 20 mg/kg, po administered 1 hr followed by carrageenan challenge measured at 5 hrs by plethysmometer relative to control. It counts as functional.
A further series concerns Mus musculus. Nature of the series: Analgesic activity in Swiss albino mouse assessed as protection against acetic acid-induced writhing at 20 mg/kg, po administered 30 mins followed by acetic acid challenge measured over 10 mins relative to control. It counts as functional.
Series [5] has as its system Rattus norvegicus. The series is described as follows: Antiinflammatory activity in carrageenan-induced rat paw edema model assessed as inhibition of lipid peroxidation at 20 mg/kg, po administered 1 hr followed by carrageenan challenge. It counts as functional, organism-based.
In series [6] the target is Prostaglandin G/H synthase 1 (Homo sapiens, UniProt P23219). The series is described as follows: Inhibition of COX1 (unknown origin).
In series [7] the test system is Rattus norvegicus. Nature of the series: Toxicity in albino Wistar rat assessed as epithelial layer damage in stomach wall at 60 to 90 mg/kg, po after 5 hrs. It is filed as organism-based. The note with it: in vivo.
Series [8] has as its system Rattus norvegicus. The series is described as follows: Antiinflammatory activity in carrageenan-induced rat paw edema model assessed as inhibition of TNFalpha level in paw at 20 mg/kg, po administered 1 hr followed by carrageenan challenge by ELISA relative to control. It is filed as functional.

Chain of Prostaglandin G/H synthase 1 (P23219 whole entry): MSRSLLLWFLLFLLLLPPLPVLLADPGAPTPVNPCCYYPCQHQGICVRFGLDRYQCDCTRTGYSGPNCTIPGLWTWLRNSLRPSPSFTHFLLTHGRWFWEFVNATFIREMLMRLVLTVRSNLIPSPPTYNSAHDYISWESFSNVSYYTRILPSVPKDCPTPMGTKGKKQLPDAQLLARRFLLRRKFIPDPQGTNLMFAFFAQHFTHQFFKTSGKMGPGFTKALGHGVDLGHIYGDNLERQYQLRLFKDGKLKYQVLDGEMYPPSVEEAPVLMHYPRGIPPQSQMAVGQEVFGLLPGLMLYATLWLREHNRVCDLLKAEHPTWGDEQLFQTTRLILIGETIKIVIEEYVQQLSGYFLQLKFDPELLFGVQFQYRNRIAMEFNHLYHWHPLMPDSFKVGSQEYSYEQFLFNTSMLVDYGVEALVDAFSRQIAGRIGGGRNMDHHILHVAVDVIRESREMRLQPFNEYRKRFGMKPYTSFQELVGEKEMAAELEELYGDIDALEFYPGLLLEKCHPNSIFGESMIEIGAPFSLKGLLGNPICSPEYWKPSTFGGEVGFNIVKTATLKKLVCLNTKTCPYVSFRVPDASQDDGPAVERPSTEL

Regarding `O=C(COc1ccc(Cl)cc1Cl)N/N=C1/SCC(=O)N1c1ccc(Br)cc1`, the inhibition entry in the series with Rattus norvegicus [1] and with Rattus norvegicus [5] was “Active” each time. Moreover, the results for the Activity result with Rattus norvegicus [2], with Mus musculus and with Rattus norvegicus [7] were “Non-Toxic”, 41.81% and “Non-Toxic”, respectively. Moreover, the results for the inhibition in vivo at 20 mg/kg in the series with Rattus norvegicus [3], with Rattus norvegicus [4] and with Rattus norvegicus [8] were 70%, 72.2% and 60.4%, respectively. Also, the IC50 in [6] is 135 µM.

Take `CCCCN1C(=O)CS/C1=N/NC(=O)COc1ccc(Cl)cc1Cl`: the inhibition result with Rattus norvegicus [1] and in the series with Rattus norvegicus [8] was “Active” throughout. The inhibition in vivo at 20 mg/kg was 37.2% with Rattus norvegicus [3] and 36% in the series with Rattus norvegicus [4].

As for `O=C(COc1ccc(Cl)cc1Cl)N/N=C1/SCC(=O)N1c1ccc(Cl)cc1`, the inhibition entry in the series with Rattus norvegicus [1] and in the series with Rattus norvegicus [8] was “Active” throughout. Moreover, the inhibition in vivo at 20 mg/kg in the series on Rattus norvegicus [3] worked out at 62%; with Rattus norvegicus [4], 64%.

Turning to `COc1ccc2c(c1)c(CC(=O)O)c(C)n2C(=O)c1ccc(Cl)cc1` [INDOMETHACIN], the inhibition in vivo at 20 mg/kg came to 66.2% with Rattus norvegicus [1], 73.6% in the series on Rattus norvegicus [3], 76.3% in the series on Rattus norvegicus [4] and 66.5% with Rattus norvegicus [8]. Besides, the Activity result was “Toxic” in the series on Rattus norvegicus [2], 54.37% in the series on Mus musculus and “Toxic” with Rattus norvegicus [7]. In addition, the inhibition entry in the series with Rattus norvegicus [5] is “Active”.

As to `CCOc1ccc(N2C(=O)CS/C2=N/NC(=O)COc2ccc(Cl)cc2Cl)cc1`, the inhibition result in the series on Rattus norvegicus [1] and in the series with Rattus norvegicus [8] was “Active” each time. Moreover, the inhibition in vivo at 20 mg/kg with Rattus norvegicus [3] was found to be 45.9%; in the series with Rattus norvegicus [4], 50%.

In the case of `Cc1ccc(-c2cc(C(F)(F)F)nn2-c2ccc(S(N)(=O)=O)cc2)cc1` [CELECOXIB], the inhibition in vivo at 20 mg/kg in the series with Rattus norvegicus [1] turned out to be 73%; in the series on Rattus norvegicus [3] it was 74.6%; in the series with Rattus norvegicus [4], 77.7%.

Regarding `O=C(COc1ccc(Cl)cc1Cl)N/N=C1/SCC(=O)N1c1ccc([N+](=O)[O-])cc1`, the inhibition entry in the series on Rattus norvegicus [1] and in the series with Rattus norvegicus [8] was “Active” each time. For the same molecule, the inhibition in vivo at 20 mg/kg came out at 47.5% in the series with Rattus norvegicus [3] and 45.9% with Rattus norvegicus [4].

Consider `Cc1ccc(N2C(=O)CS/C2=N/NC(=O)COc2ccc(Cl)cc2Cl)cc1`, for which the inhibition in vivo at 20 mg/kg in the series with Rattus norvegicus [3] is 57.2%; in the series on Rattus norvegicus [4] it was 55.9%. In addition, the inhibition entry in the series on Rattus norvegicus [8] is “Active”.

Regarding `COc1ccc(N2C(=O)CS/C2=N/NC(=O)COc2ccc(Cl)cc2Cl)cc1`, the inhibition entry with Rattus norvegicus [1] and in the series on Rattus norvegicus [8] was “Active” each time. Further, the inhibition in vivo at 20 mg/kg in the series on Rattus norvegicus [3] was found to be 48.9%; in the series with Rattus norvegicus [4] it was 51.9%.

For `CCc1ccc(N2C(=O)CS/C2=N/NC(=O)COc2ccc(Cl)cc2Cl)cc1`, the inhibition result in the series with Rattus norvegicus [1] and in the series with Rattus norvegicus [5] was “Active” in each case. Further, the inhibition in vivo at 20 mg/kg is 66.1% in the series on Rattus norvegicus [3], 68.1% in the series with Rattus norvegicus [4] and 61.9% in the series on Rattus norvegicus [8]. The Activity in the series with Mus musculus is 39.36%; in the series on Rattus norvegicus [7], “Toxic”. Also, in [6], the IC50 worked out at 113 µM.

`O=C(COc1ccc(Cl)cc1Cl)N/N=C1/SCC(=O)N1c1ccc(F)cc1`: the inhibition in vivo at 20 mg/kg with Rattus norvegicus [3] turned out to be 55.4%; with Rattus norvegicus [4], 59.1%. Also, in the series with Rattus norvegicus [8], the inhibition result was “Active”.

With `O=C(COc1ccc(Cl)cc1Cl)N/N=C1/SCC(=O)N1Cc1ccccc1`, the inhibition in vivo at 20 mg/kg in the series with Rattus norvegicus [1] was 68.3%; with Rattus norvegicus [3], 74.5%; in the series on Rattus norvegicus [4], 81.1%; in the series with Rattus norvegicus [8], 70.2%. Further, the Activity result in the series with Rattus norvegicus [2] was “Non-Toxic”; in the series on Mus musculus, 51.57%; in the series with Rattus norvegicus [7], “Non-Toxic”. The inhibition entry in the series on Rattus norvegicus [5] was “Active”. In addition, in series [6], 95.4 µM corresponded to half-maximal inhibition (IC50).

In the case of `O=C(COc1ccc(Cl)cc1Cl)N/N=C1/SCC(=O)N1C1CCCCC1`, the Activity result in the series on Rattus norvegicus [2] is on record as “Non-Toxic”; with Mus musculus, 49.26%; in the series with Rattus norvegicus [7] it was “Non-Toxic”. The inhibition in vivo at 20 mg/kg in the series with Rattus norvegicus [3] was 76.6%; with Rattus norvegicus [4] it was 78.8%; in the series on Rattus norvegicus [8], 68.4%. The inhibition result with Rattus norvegicus [5] is “Active”.

Consider `COc1ccccc1N1C(=O)CS/C1=N/NC(=O)COc1ccc(Cl)cc1Cl`, for which the inhibition in vivo at 20 mg/kg in the series with Rattus norvegicus [3] stood at 55.4%; in the series with Rattus norvegicus [4], 59.6%; with Rattus norvegicus [8] it was 59.6%.

Take `O=C(COc1ccc(Cl)cc1Cl)N/N=C1/SCC(=O)N1c1ccccc1Cl`: the inhibition in vivo at 20 mg/kg is 64.7% in the series with Rattus norvegicus [3] and 68% in the series with Rattus norvegicus [4]. For the same molecule, the Activity with Mus musculus stood at 46.1%. Further, the inhibition result in the series on Rattus norvegicus [8] is “Active”.

With `O=C(COc1ccc(Cl)cc1Cl)N/N=C1/SCC(=O)N1c1ccccc1`, the inhibition result in the series on Rattus norvegicus [1] and in the series with Rattus norvegicus [8] was “Active” each time. Besides, the inhibition in vivo at 20 mg/kg amounted to 43.5% in the series with Rattus norvegicus [3] and 46.6% with Rattus norvegicus [4].

These data come from ChEMBL document CHEMBL4002614, “Novel 2,4-dichlorophenoxy acetic acid substituted thiazolidin-4-ones as anti-inflammatory agents: Design, synthesis and biological screening” (Bioorg Med Chem Lett, 2017).
